Assay results published in PMC6506705 (2019).

Assays:
[1] = test system: EA#14.3K42 non-labelled (DNA, aptamer) ATACCAGCTTATTCAATTTGAGGCGGGTGGGTGGGTTGAATA; assay: dye fluorescence melting profile, qualitative; conditions: 100 mM NaCl; 20 mM TRIS, 0.02% Tween 20, pH 7.6; 10x dye; 0.5-4 μM aptamer
[2] = test system: EA#14.3K31 non-labelled (DNA, aptamer) ATTCAATTTGAGGCGGGTGGGTGGGTTGAAT; assay: dye fluorescence melting profile, qualitative; conditions: 100 mM NaCl; 20 mM TRIS, 0.02% Tween 20, pH 7.6; 10x dye; 0.5-4 μM aptamer

`CCCN(CCCN(C)C)c1cc(C=C2Sc3ccccc3N2C)c2ccccc2[n+]1-c1ccccc1` was tested, and the binding [1] was “yes” and the binding [2] was “yes”.
